In brackets after ≈: the same amount, converted by molar mass. Like-named read-outs stand apart in the source and are kept apart here. Where a SMILES comes first, the peptide text is derived from it. Bridges are numbered along the chain shown (N, C = ends). Roman numbers before positions name the chains, in order.
Columns and labels:
Organisms (not named) = assay: organism not typed
Method: Required quantity of the compound was weighed and dissolved in water/dimethyl sulphoxide/suitable solvent to yield 1 mg/ml stock solution. The stock solution was diluted in MHB/CAMHB to yield 8 μg/ml or 64 μg/ml or 512 μg/ml solution as per requirement. Serial two fold dilutions of the compound was prepared using MHB/CAMHB in 96 well microtitre trays using a multichannel pipette. Organisms were grown in MHB/CAMHB for 4-5 hrs at 35±2° C., 110±10 rpm. Optical density (OD) of the cultures is adjusted to 625 nm which corresponds to 0.5 Mc Farland standard (1-2×10^8 cfu/ml) and further diluted to achieve a final inoculum of […]×10^4 cfu/well. Broth, compound and organism controls were set up. Microdilution trays were incubated at 35±2° C. for 16-20 hours in an ambient air incubator. After the incubation period, growth of organism in the wells was detected by unaided eye facilitated by a viewing device.

B16F10 cells = conditions: 5 mg/kg s.c.; during the period of dosing
Method: C57/Black6 female mice (Aurigene, Bangalore, India) aged 6 to 8 weeks were used for the experiment. Animals were acclimatized for a week in the experimental room before conducting the experiment.
On day 0, B16F10 cells grown in DMEM containing 10% FBS at 70 to 75% confluency were harvested and 1×10^6 cells per animal were injected to mice subcutaneously on the right flank region. […] Vehicle control group of mice received only saline. Each group consisted of ten animals. Body weight and clinical signs were recorded daily.

4T1 cells = conditions: 3 mg/kg s.c.; during dosing period
Method: On day 0, 4T1 cells grown in RPMI 1640 containing 10% FBS at 70 to 75% confluency were harvested and 0.1×10^6 cells per animal were injected along with matrigel orthotopically to mammary fat pad. […] Vehicle control group of mice received only saline. Each group consisted of ten animals. Body weight and clinical signs were recorded daily. Tumour volume was measured by slide callipers.

[1] = test system: mouse splenocytes inhibited by MDA-MB-231 tumour cells expressing PD-L1; assay: Mouse splenocyte proliferation rescue, CFSE method; type: cell-based; conditions: screened at 100 nm concentration and compared with 100 nm Comp 8
Method: Mouse splenocytes harvested from 6-8 weeks old C57 BL6 mice.; RPMI 1640 (GIBCO, Cat #11875); DMEM with high glucose (GIBCO, Cat #D6429); Fetal Bovine Serum [Hyclone, Cat #SH30071.03]; Pencilin (10000 unit/ml)-Streptomycin(10,000 μg/ml) Liquid (GIBCO, Cat #15140-122); MEM Sodium Pyruvate solution 100 mM (100×), Liquid (GIBCO, Cat #11360); Nonessential amino acid (GIBCO, Cat #11140); L-Glutamine (GIBCO, Cat #25030); Anti-CD3 antibody (eBiosciences—16-0032); Anti-CD28 antibody (eBiosciences—16-0281); ACK lysis buffer (1 mL) (GIBCO, Cat #-A10492); Histopaque (density—1.083 gm/ml) (SIGMA 10831); Trypan blue solution (SIGMA-T8154); Hemacytometer (Bright line-SIGMA Z359629); FACS Buffer (PBS/0.1% BSA): Phosphate Buffered Saline (PBS) pH 7.2 (HiMedia TS1006) with 0.1% Bovine Serum Albumin (BSA) (SIGMA A7050) and sodium azide (SIGMA 08591); 5 mM stock solution of CFSE: CFSE stock solution was prepared by diluting lyophilized CFSE with 180 μL of Di methyl Sulfoxide (DMSO C2H6SO, SIGMA-D-5879) and aliquoted in to tubes for further use. Working concentrations were titrated from 10 μM to 1 μM. (eBioscience—650850-85); 96-well format ELISA plates (Corning CLS3390); BD FACS caliber (E6016).
Splenocytes harvested in a 50 ml falcon tube by mashing spleen in a 40 μm cell strainer were further treated with 1 ml ACK lysis buffer for 5 mins at RT. After washing with 9 ml of RPMI complete media, cells re-suspended in 3 ml of 1×PBS in a 15 ml tube. 3 ml of histopaque was added very carefully to the bottom of the tube without disturbing overlaying splenocyte suspension. Spin the tube at 800×g for 20 mins at RT. Opaque layer of lymphocytes is collected carefully without disturbing/mixing any of the layers. Cells washed twice with cold 1×PBS followed by total cell counting using trypan blue exclusion method and used further for cell based assays.
Tumour cells (MDMBA231) are cultured and maintained in high glucose complete DMEM media. 1×10^5 tumour cells were plated in 96 well plates along with required conc. of PD1 derived peptide and allowed to adhere at 37° C. for 4 hrs. 1×10^6 cells/ml of harvested splenocytes are treated with 5 μM of CFSE in pre warmed 1×PBS/0.1% BSA solution for 10 mins at 37° C. Excess CFSE was quenched using 5 volumes of ice-cold culture media to the cells and incubated on ice for 5 mins. CFSE labeled splenocytes were further given three washes with ice cold complete DMEM media. CFSE labeled 1×10^5 splenocytes added to above wells containing tumours cells and test compounds. Splenocytes were stimulated with anti-CD3 and anti-CD28 antibody (1 μg/ml each) and the co-culture was further incubated for 72 hrs at 37° C. with 5% CO2. Cells were harvested and washed thrice with ice cold FACS buffer and % proliferation was analyzed using a FACS caliber with 488 nm excitation and 521 nm emission filters. Each experimental condition was carried out in triplicates and each experiment at least carried out three times. Splenocyte proliferation was analyzed using cell quest FACS program and fold induction was calculated by normalizing individual values to percent background proliferation. Fold induction=Percent splenocyte proliferation/percent background proliferation Stimulated splenocytes: Splenocytes+anti-CD3/CD28 stimulation Background proliferation: Splenocytes+anti-CD3/CD28+Tumour Percent Proliferation rescue={(compound percent proliferation−Background percent proliferation)/(Stimulated percent proliferation−Background percent proliferation)}*100.

in vitro = assay: in vitro
Method: Briefly, overnight fasted rats were sacrificed by cervical dislocation; kidneys were removed, washed with chilled saline and decapsulated. The renal tissue was sliced and a 5% homogenate was made in buffer containing 2 mM Tris-HCl, 50 mM mannitol pH 7.1 using 10 strokes in a Porter-Elvelhemhomogeniser. The homogenate was centrifuged at 250×g for 5 min and the pellet was re-homogenized (four strokes) in the same buffer. Both the homogenate preparations were pooled (an aliquot of sample was taken for enzyme assays), allowed to remain at 4° C. for 15 min and filtered using a nylon mesh cloth. To this, a 50% PEG solution in water was added to make a final concentration of 10% PEG, stirred for 15 min continuously at 4° C. and centrifuged at 7500×g for 10 min. The pellet was discarded and the supernatant was spun at 12,000×g for 10 min. This pellet was discarded and the supernatant was centrifuged at 27,000×g for 40 min. To the pellet, 15 ml suspension buffer containing 10 mM Tris-HCl and 300 mM mannitol, pH 7.1 was added, centrifuged at 27,000×g for 40 min. The pellet was washed twice with the same suspension buffer and finally suspended 1 ml of the same buffer using a syringe fitted with a 26-gauge needle.
1. Microsomal protein working solution was prepared as mentioned above (0.55 mg/ml) in 50 mM potassium phosphate buffer (pH 7.4)
2. Test compound (compound 69) working stock solutions at concentration of 4 μM was prepared in 50 mM potassium phosphate buffer (pH 7.4)
3. 125 μL of test compound (compound 69) from step 2 diluted with 100 μL of buffer and 275 μl of microsomal protein solution from step 2 was pre-incubated separately for 10 mins at 37° C.
4. Both the test solution from step 3 was mixed together and the reaction mixture was aliquoted at various time intervals and processed by SPE method.
Kidney brush border stability of the compounds was calculated as the amount of substrate metabolized by the incubation with kidney brush border microsomes. Initial amount of substrate (concentration at T0) was measured and KBBM stability was assessed by the disappearance of compound at various time points based on the change in analyte to internal standard peak height ratio using LCMS/MS (API 4000, AB Sciex). Results are expressed as mean±SD of test compound remaining at any given time point (Table VI).

[2] = rat, kidney brush border membrane (KBBM) preparation, pH 7.4

In the case of `CC[C@H](C)[C@H](NC(=O)[C@H](CCC(N)=O)NC(=O)[C@H](C)NC(=O)[C@H](CCCCN)NC(=O)[C@@H]1CCCN1C(=O)[C@H](C)NC(=O)[C@H](CC(C)C)NC(=O)[C@H](CCC(N)=O)NC(=O)[C@@H](NC(=O)[C@@H](NC(=O)[C@H](CCCNC(=N)N)NC(=O)[C@H](Cc1ccccc1)NC(=O)C(CCCCNC(=O)[C@H](Cc1ccccc1)NC(=O)[C@H](CO)NC(=O)[C@H](CCC(=O)O)NC(=O)[C@H](CO)NC(=O)[C@@H](NC(=O)[C@H](CC(N)=O)NC(=O)[C@@H](N)CO)[C@@H](C)O)NC(=O)[C@H](Cc1ccccc1)NC(=O)[C@H](CO)NC(=O)[C@H](CCC(=O)O)NC(=O)[C@H](CO)NC(=O)[C@@H](NC(=O)[C@H](CC(N)=O)NC(=O)[C@@H](N)CO)[C@@H](C)O)C(C)C)[C@@H](C)O)C(=O)N[C@@H](CCCCN)C(=O)N[C@@H](CCC(=O)O)C(N)=O` (stereo partly shown) [Compound 8], the MIC (Organisms (not named); broth microdilution, 16-20 hours at 35±2° C.) is reported as > 32 mg/L, the Body weight (B16F10 cells) is reported as “no body weight reduction” and the Clinical signs (B16F10 cells) is reported as “no clinical signs”. The Body weight (4T1 cells) was “no body weight reduction”.
In the case of `CC[C@H](C)[C@H](NC(=O)[C@H](CCCCN)NC(=O)[C@H](C)NC(=O)[C@H](CCCCN)NC(=O)[C@@H]1CCCN1C(=O)[C@H](Cc1c[nH]cn1)NC(=O)[C@H](CC(C)C)NC(=O)[C@H](CCC(N)=O)NC(=O)[C@@H](NC(=O)[C@@H](NC(=O)[C@H](CCC(N)=O)NC(=O)[C@H](Cc1ccccc1)NC(=O)[C@H](CCCCNC(=O)[C@H](CC(C)C)NC(=O)[C@H](CC(=O)O)NC(=O)[C@H](CCC(=O)O)NC(=O)[C@H](CO)NC(=O)[C@H](Cc1c[nH]c2ccccc12)NC(=O)[C@H](CC(N)=O)NC(=O)[C@@H](N)CO)NC(=O)[C@H](CC(C)C)NC(=O)[C@H](CC(=O)O)NC(=O)[C@H](CCC(=O)O)NC(=O)[C@H](CO)NC(=O)[C@H](Cc1c[nH]c2ccccc12)NC(=O)[C@H](CC(N)=O)NC(=O)[C@@H](N)CO)[C@@H](C)CC)[C@@H](C)CC)C(=O)N[C@@H](CCC(=O)O)C(=O)N[C@@H](CCC(=O)O)C(N)=O` [Compound 69] (I: H-SNWSEDLKFQIIQLHPKAKIEE-NH2 / II: H-SNWSEDL; amide I:8-II:C), the “Percent rescue for various compounds in mouse splenocyte proliferation CFSE based assay” value (shortened to “Percent rescue for various compounds”) [1] is reported as 48%, the “RKBBM % compound remaining” value (in vitro; 0 min) is reported as 100% and the remaining at 10 min, 1 μM (in vitro; [2]) is reported as 100%. The remaining at 0.5 h, 1 μM (in vitro; [2]) was 98% and the remaining at 1 h, 1 μM (in vitro; [2]) was 81%.
Work on `O=C(O)c1cn(C2CC2)c2cc(N3CCNCC3)c(F)cc2c1=O` [ciprofloxacin] yielded an MIC (Organisms (not named)) of 0.007 mg/L (≈ 0.0211 µM).
For `C[C@H]1COc2c(N3CCN(C)CC3)c(F)cc3c(=O)c(C(=O)O)cn1c23` [levofloxacin], the MIC (Organisms (not named)) was 0.015 mg/L (≈ 0.0415 µM).
For “Biotin-Ahx-EKIQAKPAYWNLVK(KDTQNS)DTQNS-NH2 [Compound 61]”, the “Percent rescue for various compounds” value [1] was 67%.
With “Biotin-Ahx-sntsesfk(sntsesf)frvtqlapkaqike-NH2 [Compound 60]” the “Percent rescue for various compounds” value [1] was 14.9%.
In the case of CGAISLAPKAQIKE-NH2 [Compound 5], the “Percent rescue for various compounds” value [1] is reported as 68%.
For EDRSQPGQDCR-NH2 [Compound 4], the “Percent rescue for various compounds” value [1] was 74.7%.
In the case of FRVTQLAPKAQIKE-NH2 [Compound 43], the “Percent rescue for various compounds” value [1] is reported as 66%.
With SNTSESF-NH2 [Compound 1] the “Percent rescue for various compounds” value [1] was 96.5%.
In the case of SNTSESFFRVTQLAPKAQIKE-NH2 [Compound 26], the “Percent rescue for various compounds” value [1] is reported as 86.6%.
For “sntsesfk(sntsesf)frvtqlapkaqike-NH2 [Compound 13]”, the “Percent rescue in mouse splenocyte proliferation CFSE based assay (cell printed with nM, control peptide)” value ([1]; control peptide) was 0-12 nM-.
